Assay results published in the NIST ThermoML archive (doi:10.1021/je050374d).

Experiment: xn = mol fraction of the nth substance listed
Conditions: Liquid

C=C [ethene] + CO
Conditions | mass density [kg/m3]
278.15 K, x1 = 0.147 | 742.3
278.15 K, x1 = 0.189 | 722.2
278.15 K, x1 = 0.295 | 675.3
278.15 K, x1 = 0.373 | 644.9
278.15 K, x1 = 0.989 | 322
283.65 K, x1 = 0.14 | 741.3
283.65 K, x1 = 0.221 | 706
283.65 K, x1 = 0.325 | 657.5
283.65 K, x1 = 0.432 | 610.9
283.65 K, x1 = 0.475 | 589.1
283.65 K, x1 = 0.984 | 258.5
